Laboratory results taken from the CheMixHub viscosity set.

Test: xn = mol fraction of the nth substance listed

CN(C)CCCN + O
viscosity [mPa·s]
Settings | 293.15 K | 303.15 K | 308.15 K | 313.15 K | 318.15 K | 323.15 K
100 kPa, x1 = 0.1 | 8.105 | 5.084 | – | 3.421 | – | 2.362
100 kPa, x1 = 0.1998 | 13.62 | 8.093 | – | 5.329 | – | 3.605
100 kPa, x1 = 0.2998 | 11.49 | 7.049 | – | 4.586 | – | 3.142
100 kPa, x1 = 0.4004 | 7.437 | 4.84 | – | 3.296 | – | 2.359
100 kPa, x1 = 0.5003 | 4.661 | 3.222 | – | 2.339 | – | 1.759
100 kPa, x1 = 0.5989 | 3.168 | 2.25 | – | 1.781 | – | 1.363
100 kPa, x1 = 0.6992 | 2.225 | 1.7 | – | 1.333 | – | 1.076
100 kPa, x1 = 0.8005 | 1.691 | 1.294 | – | 1.046 | – | 0.8667
100 kPa, x1 = 0.8999 | 1.327 | 1.07 | – | 0.8872 | – | 0.75
101 kPa, x1 = 0.0488 | – | 2.376 | – | – | – | –
101 kPa, x1 = 0.0996 | – | 4.856 | 3.946 | 3.263 | 2.739 | 2.323
101 kPa, x1 = 0.0999 | – | 5.01 | – | – | – | –
101 kPa, x1 = 0.147 | – | 7.175 | – | – | – | –
101 kPa, x1 = 0.1504 | – | 7.078 | 5.637 | 4.578 | 3.791 | 3.16
101 kPa, x1 = 0.1743 | – | 7.96 | – | – | – | –
101 kPa, x1 = 0.1994 | – | 8.356 | 6.623 | 5.341 | 4.372 | 3.624
101 kPa, x1 = 0.1999 | – | 8.348 | – | – | – | –
101 kPa, x1 = 0.2247 | – | 8.378 | – | – | – | –
101 kPa, x1 = 0.2497 | – | 8.194 | – | – | – | –
101 kPa, x1 = 0.2521 | – | 8.394 | 6.631 | 5.351 | 4.383 | 3.636
101 kPa, x1 = 0.2744 | – | 7.787 | – | – | – | –
101 kPa, x1 = 0.2995 | – | 7.688 | 6.133 | 4.967 | 4.089 | 3.402
101 kPa, x1 = 0.2998 | – | 7.275 | – | – | – | –
101 kPa, x1 = 0.3809 | – | 6.001 | 4.861 | 4.005 | 3.354 | 2.831
101 kPa, x1 = 0.5 | – | 3.919 | 3.282 | 2.77 | 2.372 | 2.049
101 kPa, x1 = 0.5994 | – | 2.525 | 2.116 | 1.884 | 1.65 | 1.461
101 kPa, x1 = 0.6826 | – | 1.939 | 1.701 | 1.502 | 1.339 | 1.201
101 kPa, x1 = 0.7798 | – | 1.492 | 1.329 | 1.191 | 1.077 | 0.9811
101 kPa, x1 = 0.8918 | – | 1.163 | 1.042 | 0.9578 | 0.8777 | 0.8099
